This note sets out measurements from patent US9926282B2, “Phthalazinones and isoquinolinones as rock inhibitors” (BRISTOL-MYERS SQUIBB COMPANY, priority 2013, dated 2018).

Where a name gives a salt, the structure may show the parent alone.

For the test, the target named is ROCK1 (Homo sapiens (Human), UniProt Q13464). The experiment in a line: ROCK assay (LABCHIP peptide phosphorylation), ROCK1. It is filed as biochemical. Particulars: 5 μM ATP, 1.5 μM peptide substrate; read-out: ROCK1 IC50.
ROCK1, sequence (Q13464 whole entry, species assumed): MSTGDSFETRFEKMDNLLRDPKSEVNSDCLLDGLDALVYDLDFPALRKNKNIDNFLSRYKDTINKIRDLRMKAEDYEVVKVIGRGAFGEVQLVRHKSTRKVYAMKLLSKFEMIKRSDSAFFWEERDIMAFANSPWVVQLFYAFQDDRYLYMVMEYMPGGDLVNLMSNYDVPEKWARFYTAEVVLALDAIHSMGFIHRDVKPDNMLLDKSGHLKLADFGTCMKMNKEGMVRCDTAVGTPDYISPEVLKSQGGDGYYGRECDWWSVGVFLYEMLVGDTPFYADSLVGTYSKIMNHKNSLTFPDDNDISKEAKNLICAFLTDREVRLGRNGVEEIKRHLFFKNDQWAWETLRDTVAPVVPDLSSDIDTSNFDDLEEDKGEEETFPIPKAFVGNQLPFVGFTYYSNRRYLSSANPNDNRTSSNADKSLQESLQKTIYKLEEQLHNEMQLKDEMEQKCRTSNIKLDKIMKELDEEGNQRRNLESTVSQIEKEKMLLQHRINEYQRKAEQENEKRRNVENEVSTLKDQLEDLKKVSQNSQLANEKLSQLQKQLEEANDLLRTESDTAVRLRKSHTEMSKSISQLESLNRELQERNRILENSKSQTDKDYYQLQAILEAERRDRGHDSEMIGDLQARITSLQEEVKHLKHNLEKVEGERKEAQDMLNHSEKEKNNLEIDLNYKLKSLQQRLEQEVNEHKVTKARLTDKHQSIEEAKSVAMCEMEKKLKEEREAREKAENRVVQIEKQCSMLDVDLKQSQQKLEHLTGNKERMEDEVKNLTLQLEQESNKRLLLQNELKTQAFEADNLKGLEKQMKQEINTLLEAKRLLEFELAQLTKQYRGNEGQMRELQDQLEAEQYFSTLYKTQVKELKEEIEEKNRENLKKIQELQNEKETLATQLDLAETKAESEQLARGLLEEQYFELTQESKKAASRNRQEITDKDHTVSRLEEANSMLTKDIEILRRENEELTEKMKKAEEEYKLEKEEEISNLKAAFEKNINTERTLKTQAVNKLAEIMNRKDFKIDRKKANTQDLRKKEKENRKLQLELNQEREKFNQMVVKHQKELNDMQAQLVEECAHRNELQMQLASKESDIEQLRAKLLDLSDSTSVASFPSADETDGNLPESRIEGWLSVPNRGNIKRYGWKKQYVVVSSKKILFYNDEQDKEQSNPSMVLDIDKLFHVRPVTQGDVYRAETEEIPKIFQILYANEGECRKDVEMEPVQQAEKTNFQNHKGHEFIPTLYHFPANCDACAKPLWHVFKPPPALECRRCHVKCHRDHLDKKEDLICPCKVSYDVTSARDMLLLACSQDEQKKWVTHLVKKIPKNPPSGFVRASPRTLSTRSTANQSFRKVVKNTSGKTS

Take `O=C(Nc1ccc(-c2n[nH]c(=O)c3ccccc23)cc1)c1cnn(CC(F)(F)F)c1` [Example 376, N-(4-(4-Oxo-3,4-dihydrophthalazin-1-yl)phenyl)-1-(2,2,2-trifluoroethyl)-1H-pyrazole-4-carboxamide, TFA]: the 50% inhibitory concentration (IC50) (commonly the concentration that gives 50% inhibition) was 101 to 1000 nM.
Then `CC(C)(O)Cn1nc(C(=O)Nc2ccc(-c3n[nH]c(=O)c4ccccc34)cc2F)c2ccccc21` [Example 358, N-(2-Fluoro-4-(4-oxo-3,4-dihydrophthalazin-1-yl)phenyl)-1-(2-hydroxy-2-methylpropyl)-1H-indazole-3-carboxamide], with 101 to 1000 nM; and `Cc1ccc2oc(Nc3ccc(-c4n[nH]c(=O)c5ccccc45)cc3)nc2c1` [Example 86, 4-{4-[(5-Methyl-1,3-benzoxazol-2-yl)amino]phenyl}-1,2-dihydrophthalazin-1-one], with 101 to 1000 nM.
Under `CC1(C)OB(c2ccc(CC(=O)N3Cc4ccccc4C3)c(F)c2)OC1(C)C` [Example 36, 2-(2-Fluoro-4-(4,4,5,5-tetramethyl-1,3,2-dioxaborolan-2-yl)phenyl)-1-(isoindolin-2-yl)ethanone] stands 1000 to 50000 nM; under `CC(O)Cn1cc(C(=O)Nc2ccc(-c3n[nH]c(=O)c4ccccc34)cc2)cn1` (stereo not drawn) [Example 387, 1-(2-Hydroxypropyl)-N-(4-(4-oxo-3,4-dihydrophthalazin-1-yl)phenyl)-1H-pyrazole-4-carboxamide], 1000 to 50000 nM; under `O=C(Nc1ccc(-c2n[nH]c(=O)c3ccccc23)cc1)c1cnn(CC2CC2)c1` [Example 375, 1-(Cyclopropylmethyl)-N-(4-(4-oxo-3,4-dihydrophthalazin-1-yl)phenyl)-1H-pyrazole-4-carboxamide, TFA], 0.1 to 100 nM.
Turning to `O=C(Nc1ccc(-c2n[nH]c(=O)c3ccccc23)cc1)c1cnn(CC(F)(F)C(F)F)c1` [Example 383, N-(4-(4-Oxo-3,4-dihydrophthalazin-1-yl)phenyl)-1-(2,2,3,3-tetrafluoropropyl)-1H-pyrazole-4-carboxamide, TFA], the half-inhibitory concentration (IC50) is 101 to 1000 nM.
In the case of `O=C(Nc1ccc(-c2n[nH]c(=O)c3ccccc23)cc1)c1cnn(C2CCC2)c1` [Example 385, TFA], the half-maximal inhibitory concentration (IC50) lay within 0.1 to 100 nM.
For the molecule `O=c1[nH]nc(-c2ccc(Nc3nnc(-c4ccccc4)s3)cc2)c2ccccc12` [Example 87, 4-(4-((5-Phenyl-1,3,4-thiadiazol-2-yl)amino)phenyl)phthalazin-1(2H)-one], the concentration for half-maximal inhibition (IC50) fell in the range of 101 to 1000 nM.
Regarding `O=C(Nc1ccc(-c2n[nH]c(=O)c3ccccc23)cc1)c1cnn2ccc(OCCO)cc12` [Example 186, 5-(2-hydroxyethoxy)-N-[4-(4-oxo-3,4-dihydrophthalazin-1-yl)phenyl]pyrazolo[1,5-a]pyridine-3-carboxamide], the half-maximal inhibitory concentration (IC50) is 101 to 1000 nM.
With `O=c1[nH]nc(-c2ccc(Nc3nc4ccccc4s3)cc2)c2ccccc12` [Example 84], the IC50 was 101 to 1000 nM.
Under `O=C(Nc1ccc(-c2c[nH]c(=O)c3ccccc23)cc1)c1ccc(N2CCOCC2)cc1` [Example 250, 4-Morpholino-N-(4-(1-oxo-1,2-dihydroisoquinolin-4-yl)phenyl)benzamide] stands 101 to 1000 nM; under `O=C(Cc1ccc(-c2c[nH]c(=O)c3ccccc23)c(F)c1)N1Cc2ccccc2C1` [Example 256, 4-(2-Fluoro-4-(2-(isoindolin-2-yl)-2-oxoethyl)phenyl)isoquinolin-1(2H)-one], 101 to 1000 nM.
Then `O=C(Nc1ccc(-c2n[nH]c(=O)c3ccccc23)cc1)c1cn[nH]c1` [Example 391, N-(4-(4-Oxo-3,4-dihydrophthalazin-1-yl)phenyl)-1H-pyrazole-4-carboxamide, TFA], with 101 to 1000 nM.
Under `O=C(Nc1ccc(-c2n[nH]c(=O)c3ccccc23)c(CO)c1)c1nn(CCC2CCOCC2)c2ccccc12` [Example 361, N-(3-(Hydroxymethyl)-4-(4-oxo-3,4-dihydrophthalazin-1-yl)phenyl)-1-(2-(tetrahydro-2H-pyran-4-yl)ethyl)-1H-indazole-3-carboxamide] stands 101 to 1000 nM.
